According to patent US12721844B2, “Chronic kidney disease treatment or prevention method” (Japan Tobacco Inc., priority 2019, dated 2026):

What was measured:
glucose-loaded SD rats [1] = assay: OGTT (Oral Glucose Tolerance Test), Test Example 3; type: in vivo, rat; settings: 3 mg/kg oral, 16 hours before glucose load; compared to vehicle
Experimental: (§1) OGTT (Oral Glucose Tolerance Test)
Vehicle (0.5% methylcellulose solution), or Compound 1, Compound A, or Compound B (3 mg/kg each) suspended in a 0.5% methylcellulose solution was orally administered in 5 mL/kg to an about 4-hour-fasted male SD rat (8-week old, Nihon Charles River K.K., 5 cases for each group).
Statistical analyses were based on Dunnett's multiple group test. The significance level was two-sided 5%.

male SDT fatty rats = assay: Assessment of renal protective effect (GFR in SDT fatty rats), Test Example 5; type: in vivo, rat; settings: 2 mg/kg oral once a day, 16 weeks; vs vehicle group of SDT fatty rats
Experimental: Assessment of Renal Protective Effect
Vehicle (0.5% methyl cellulose solution), Compound 1 (2 mg/kg), or dapagliflozin (0.3 mg/kg) was orally administered once a day to male SDT fatty rats (7-week old, CLEA Japan, Inc.); and as a normal control, vehicle was orally administered once a day to male SD rats (7-week old, CLEA Japan, Inc.). 16 Weeks after the administration, GFR (mL/min/100 g B.W.) was measured with a transdermal GFR monitor (MediBeacon). For statistical analysis, Student's test was conducted between the vehicle-administered group of SD rats and the vehicle-administered group of SDT fatty rats. Dunnett's multiple test was conducted for the Compound 1 and dapagliflozin groups to the vehicle group of SDT fatty rats. The significance level was two-sided 5%.

human SGLT1 = biological target: T1, human SGLT1 (Homo sapiens, UniProt P13866); assay: Assessment of SGLT1 inhibitory activity (14C-AMG uptake in human SGLT1-stably-expressing CHO-K1 cell line); type: cell-based
T1 sequence (P13866 1-664): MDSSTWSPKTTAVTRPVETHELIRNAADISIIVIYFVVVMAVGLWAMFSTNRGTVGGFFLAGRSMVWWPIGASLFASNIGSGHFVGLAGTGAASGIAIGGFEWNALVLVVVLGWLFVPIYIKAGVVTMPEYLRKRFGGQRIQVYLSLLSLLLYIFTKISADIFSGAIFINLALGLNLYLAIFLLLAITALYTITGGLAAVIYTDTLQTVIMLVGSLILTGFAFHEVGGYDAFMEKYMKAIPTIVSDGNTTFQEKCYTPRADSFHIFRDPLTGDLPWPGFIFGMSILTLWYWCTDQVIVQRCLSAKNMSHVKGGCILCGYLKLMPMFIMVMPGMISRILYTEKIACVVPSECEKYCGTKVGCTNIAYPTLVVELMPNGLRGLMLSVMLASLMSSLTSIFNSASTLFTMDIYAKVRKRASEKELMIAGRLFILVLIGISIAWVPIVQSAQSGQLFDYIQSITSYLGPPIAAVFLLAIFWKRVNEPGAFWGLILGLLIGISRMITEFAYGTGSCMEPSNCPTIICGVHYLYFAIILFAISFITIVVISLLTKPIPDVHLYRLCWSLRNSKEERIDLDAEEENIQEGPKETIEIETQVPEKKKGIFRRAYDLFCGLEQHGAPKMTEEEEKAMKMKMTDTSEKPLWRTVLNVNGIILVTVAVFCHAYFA
Experimental: Assessment of SGLT1 Inhibitory Activity
SGLT1 inhibitory activities of test compounds (IC50 values) were calculated based on the amount of intracellular uptake of labelled […] (^14C-AMG) transported by SGLT1.
1) Formation of Human SGLT1-Expressing Plasmid
A DNA fragment containing human SGLT1 was amplified by PCR (Polymerase Chain Reaction) using pCMV6-hSGLT1 (OriGene) as a template. In the human SGLT1, NheI recognition and cleavage sequence was added to the upstream of Kozac consensus sequence derived from a vector, and a stop codon, TAG, and SalI recognition and cleavage sequence were added to the immediate downstream of the protein-translating region of human SGLT1. […]
Human SGLT1-stably-expressing cell lines were seeded at 5×10^4 cells/well on BioCoat™ Poly-D-Lysine 96 well plate with Lid (Becton, Dickinson and Company) and cultured at 37° C. under 5% CO2 overnight. […] In the assessment for the uptake ability of ^14C-AMG, the total amount of the cell lysate was transferred to OptiPlate 96 (Perkin-E1mer) with 100 μL/well of MicroScint-40 (Perkin-E1mer) dispensed and ^14C of CPM was measured with TOPCOUNT NXT (Perkin-E1mer).
Data was calculated by deducting the average value of CPM for blank well from the average value of CPM for each well treated. […]

[2] = test system: 5/6-kidney-removed rats (male Wistar); assay: Assessment of renal protective effect 2 (5/6-kidney-removed rats), Test Example 6; type: in vivo, rat; settings: 2 mg/kg/day mixed with feed, vs vehicle-administered group
Experimental: Assessment of Renal Protective Effect 2
7-Week old male Wistar rats (Japan SLC, Inc.) were treated by removing 2/3 of the left kidney under isoflurane anesthesia and then removing the whole right kidney one week later to prepare 5/6-kidney-removed rats. Compound 1 (2 mg/kg/day) mixed with feed was orally administered to the rats from the age of 9 weeks. As a normal control, male Wistar rats at the same age were set as a sham group. […] For statistical analysis, Student's test was conducted between the vehicle-administered group and the Compound 1-administered group. […] For statistical analysis, Student's test or Aspin-Welch was conducted.

glucose-loaded SD rats [3] = assay: OGTT (Oral Glucose Tolerance Test), Test Example 2; type: in vivo, rat; settings: 1, 3, or 10 mg/kg oral, 16 hours before glucose load; compared to vehicle
Experimental: as §1
Vehicle (0.5% methylcellulose solution) or Compound 1 (1, 3, or 10 mg/kg) suspended in a 0.5% methylcellulose solution was orally administered in 5 mL/kg to an about 4-hour-fasted male SD rat (8-week old, Nihon Charles River K.K., 6 cases for each group). […] Statistical analyses were based on Steel's multiple test. The significance level was two-sided 5%.

[4] = test system: Salmonella typhimurium TA1535; assay: Ames test (reverse mutation test), TA1535; type: cell-based
From the text: (§2) Ames Test (Reverse Mutation Test)
(§3) Two plates per treatment were used.

[5] = test system: Salmonella typhimurium (TA98, TA1537, TA100, and TA1535) and Escherichia coli (WP2 uvrA); assay: Ames test (reverse mutation test), all bacterial tester strains; type: cell-based; settings: any of the bacterial tester strains, with and/or without S9 mix
From the text: as §2, §3

[6] = with S9 mix, dose 1667 μg/plate
[7] = with S9 mix, dose 5000 μg/plate
[8] = without S9 mix, dose 6.9 μg/plate
[9] = without S9 mix, dose 21 μg/plate
[10] = without S9 mix, dose 62 μg/plate
[11] = without S9 mix, dose 185 μg/plate
[12] = without S9 mix, dose 556 μg/plate
[13] = without S9 mix, dose 1667 μg/plate
[14] = without S9 mix, dose 5000 μg/plate

| Structure (SMILES) | Number of revertant colonies TA1535 ([4]; with S9 mix, dose 6.9 μg/plate) | Number of revertant colonies TA1535 ([4]; with S9 mix, dose 21 μg/plate) | Number of revertant colonies TA1535 ([4]; with S9 mix, dose 62 μg/plate) | Number of revertant colonies TA1535 ([4]; with S9 mix, dose 185 μg/plate) | Number of revertant colonies TA1535 ([4]; with S9 mix, dose 556 μg/plate) | Number of revertant colonies TA1535 [4, 6] | Number of revertant colonies TA1535 [4, 7] | Number of revertant colonies TA1535 [4, 8] | Number of revertant colonies TA1535 [4, 9] | Number of revertant colonies TA1535 [4, 10] | Number of revertant colonies TA1535 [4, 11] | Number of revertant colonies TA1535 [4, 12] | Number of revertant colonies TA1535 [4, 13] | Number of revertant colonies TA1535 [4, 14] | potential to induce reverse mutations [5] | other results |
| --- | --- | --- | --- | --- | --- | --- | --- | --- | --- | --- | --- | --- | --- | --- | --- | --- |
| C[C@H]1C(=O)NC[C@@H]1C(=O)Nc1cc(-c2cc(F)cc(OC(C)(C)C)c2)n(C(F)(F)F)n1 [Example 1, (3R,4R)-N-(5-(3-(tert-butoxy)-5-fluorophenyl)-1-(trifluoromethyl)-1H-pyrazol-3-yl)-4-methyl-5-oxopyrrolidine-3-carboxamide] |  |  |  |  |  |  |  |  |  |  |  |  |  |  |  | blood glucose level after the glucose load (Δ AUC to 120 minutes, % of Vehicle) (glucose-loaded SD rats [1]): significantly reduced the blood glucose level; GFR (mL/min/100 g B.W.) (male SDT fatty rats): inhibited the increase of GFR; SGLT1 inhibitory activity (human SGLT1; qualitative statement): confirmed to have the SGLT1 inhibitory activity; protein quantities in the urine (mg/mgCr) ([2]; 16, 30, and 69 days): lower than those of the vehicle-administered group; creatinine clearance (mL/min) [2]: significantly higher than that of the vehicle-administered group; urea nitrogen levels (mg/dL) [2]: significantly lower than those of the vehicle-administered group; blood glucose level after the glucose load (Δ AUC to 120 minutes, % of Vehicle) (glucose-loaded SD rats [3]): significantly reduced the blood glucose level |
| C[C@H]1C(=O)NC[C@@H]1C(=O)Nc1cc(-c2cccc(OC(F)(F)F)c2)n(-c2ccc(Cl)nn2)n1 [Example 10] |  |  |  |  |  |  |  |  |  |  |  |  |  |  |  | inhibition at 0.3 µM (human SGLT1; CHO-K1, at 0.3 μM, read-out: hSGLT1 inhibition): 45% |
| Nc1cc(-c2cc(F)cc(OC(F)(F)F)c2)n(-c2cncc(F)c2)n1 [Metabolite 3] | 8 | 9 | 11 | 9 | 4 | 3 | 1 | 9 | 11 | 10 | 8 | 8 | 0 | 0 | did not show potential to induce reverse mutations |  |
| Nc1cc(-c2cc(F)cc(OC(F)(F)F)c2)n(-c2cncc(C(F)(F)F)c2)n1 [Metabolite 5] | 10 | 11 | 10 | 9 | 7 | 4 | 2 | 9 | 11 | 4 | 7 | 6 | 3 | 4 | did not show potential to induce reverse mutations |  |
